Assay [1] deals with T1, dopamine D-1 receptor (Rattus norvegicus, UniProt P18901). The settings on record: read-out: D-1 Ki; rat caudate, [125I]SCH-23982.
Source text: (§1) The compounds compete with the radiolabeled ligand for occupancy of the receptors and the molar potency of each compound was quantified.
(§2) The Ki values are inversely proportional to the affinity of the compound for the receptor.
The subject of assay [2] is dopamine D-1 receptor. To be noted: for Intrinsic Activity (adenylate cyclase assay): dopamine = 100, goldfish retina or rat striatum; for EC50: read-out: EC50 (agonist activity in adenylate cyclase assay), tissue from goldfish retina or rat striatum.
Procedure: In order to determine agonist activity, cell-free tissue homogenates are incubated in an ionic buffer solution containing ATP and the compound being evaluated. The tissue was obtained from either goldfish retina or rat striatum.
For the next assay, the target named is dopamine D-2 receptor (Rattus norvegicus, UniProt P61169). Put plainly: biochemical. It is filed as binding. To be noted: rat caudate, [125I]-p-aminophenylethyl spiroperidol; read-out: D-2 Ki. How it is done: Homogenized rat caudate was the source of the D-2 receptors. […] The molar affinity of the compound for the receptor binding site was calculated by the same method used for the D-1 receptor assay, assuming a competitive interaction between the compound and the radiolabeled ligand.

Assay [3] has as its target T1, dopamine D-1 receptor. Put plainly: biochemical. The settings on record: D-1 Ki, rat caudate, [125I]SCH-23982.
Source text: as §1, §2
For assay [4], the system named is striatal dopamine receptors. Put plainly: Rotation behavior assay of in vivo activity (6-hydroxydopamine lesioned rat rotational model). To be noted: for ED50 s.c. (rotation behavior): injected subcutaneously.

In general, Ki refers to the dissociation constant of the complex between target and ligand, obtained from inhibition or displacement. Usually EC50 stands for the concentration giving half of the maximal effect.

Counter-ions that a name gives are not always drawn. Like-named read-outs stand apart in the source and are kept apart here.

Chain of dopamine D-2 receptor (P61169 whole entry): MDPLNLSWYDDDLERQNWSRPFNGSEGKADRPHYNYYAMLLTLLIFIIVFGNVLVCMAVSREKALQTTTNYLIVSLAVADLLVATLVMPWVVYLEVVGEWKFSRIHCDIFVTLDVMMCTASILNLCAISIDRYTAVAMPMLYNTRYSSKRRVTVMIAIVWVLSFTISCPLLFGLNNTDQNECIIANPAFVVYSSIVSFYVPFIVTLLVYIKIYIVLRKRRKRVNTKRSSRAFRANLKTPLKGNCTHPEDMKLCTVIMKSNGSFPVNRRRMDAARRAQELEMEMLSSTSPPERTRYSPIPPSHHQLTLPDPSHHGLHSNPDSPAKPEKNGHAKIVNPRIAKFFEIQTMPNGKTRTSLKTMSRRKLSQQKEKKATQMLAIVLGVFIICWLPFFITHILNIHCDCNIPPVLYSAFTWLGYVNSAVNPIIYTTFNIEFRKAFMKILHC
T1 sequence (P18901 whole entry): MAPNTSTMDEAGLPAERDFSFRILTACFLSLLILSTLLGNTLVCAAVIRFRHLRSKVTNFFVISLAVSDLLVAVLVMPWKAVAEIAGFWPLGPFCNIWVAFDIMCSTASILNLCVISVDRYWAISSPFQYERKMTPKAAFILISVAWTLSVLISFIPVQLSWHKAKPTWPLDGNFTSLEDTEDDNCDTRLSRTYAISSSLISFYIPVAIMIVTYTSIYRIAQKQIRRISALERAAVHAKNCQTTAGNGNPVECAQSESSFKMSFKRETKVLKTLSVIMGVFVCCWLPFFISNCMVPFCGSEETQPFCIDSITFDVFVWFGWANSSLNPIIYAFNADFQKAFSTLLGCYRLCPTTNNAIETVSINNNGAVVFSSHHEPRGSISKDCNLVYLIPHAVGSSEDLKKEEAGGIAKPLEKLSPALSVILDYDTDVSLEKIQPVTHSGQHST

For `NC[C@@H]1O[C@H](CCOCc2ccccc2)Cc2c1ccc(O)c2O` (relative stereo) [Example 77], on dopamine D-1 receptor [1], the Ki came out at 2300 nM. Further, in the assay with dopamine D-1 receptor [2], the “Intrinsic Activity (adenylate cyclase assay)” value (“Intrinsic Activity” below) is on record as 107 and the concentration giving a half-maximal response (EC50) was 93 nM. Besides, at dopamine D-2 receptor, the Ki stood at 500 nM.
Taken in the same sequence, the figures for `CCCCCC(NC(C)=O)[C@@H]1Cc2c(ccc(O)c2O)[C@H](CN)O1` (relative stereo) [Example 162] were 670 nM, 107, 690 nM and 710 nM.
`CCCCCC(NC(C)=O)[C@@H]1Cc2c(ccc(O)c2O)[C@H](CN)O1` (relative stereo) [Example 163]: the Ki was 790 nM at dopamine D-1 receptor [1] and 830 nM on dopamine D-2 receptor. Also, the “Intrinsic Activity” value in the assay with dopamine D-1 receptor [2] is listed as 140. The concentration giving a half-maximal response (EC50) at dopamine D-1 receptor [2] was determined as 1450 nM.
As for `CCC1Cc2c(ccc(O)c2O)C(CN)O1` (stereo not drawn) [Example 67], on dopamine D-1 receptor [1], the Ki was found to be 1900 nM. In the assay with dopamine D-1 receptor [2], the “Intrinsic Activity” value amounted to 92 and the EC50 was determined as 230 nM.
Regarding `C[C@H](N)C1OC(c2ccccc2)Cc2c1ccc(O)c2O` (stereo partly drawn) [Example 108, [1,3-cis]1-(1S-(1-Amino)ethyl)-5,6-dihydroxy-3-phenyl-3,4-dihydro-1H-2-benzopyran], the inhibition constant (Ki) at dopamine D-1 receptor [1] is 4100 nM; on dopamine D-2 receptor, above 10000 nM.
For `CN(C)C[C@@H]1O[C@H](C(C)(C)C)Cc2c1ccc(O)c2O` [Example 147], in the assay on dopamine D-1 receptor [2], the “Intrinsic Activity” value is reported as 89 and the concentration for a half-maximal effect (EC50) worked out at 66 nM. This compound also came in with a Ki on dopamine D-1 receptor [3] of 400 nM. In addition, the Ki at dopamine D-2 receptor is above 10000 nM. The “ED50 s.c. (rotation behavior)” value in assay [4] stood at 0.05 µmol/kg.
On to `CN(C)C[C@@H]1O[C@H](C23CC4CC(CC(C4)C2)C3)Cc2c1ccc(O)c2O` [Example 148], for which, in the assay on dopamine D-1 receptor [2], the “Intrinsic Activity” value worked out at 79 and the EC50 stood at 22 nM. The compound further yielded an inhibition constant Ki on dopamine D-1 receptor [3] of 64 nM. In addition, the Ki at dopamine D-2 receptor is 4600 nM. Moreover, in assay [4], the “ED50 s.c. (rotation behavior)” value turned out to be 0.12 µmol/kg and the “ED50 oral (rotation behavior)” value was 11 µmol/kg.
Regarding `CCCN(CCC)CC1=CC(c2ccccc2)Cc2c1ccc(O)c2O` (stereo not drawn) [Example 152], the Ki at dopamine D-1 receptor [1] worked out at 59000 nM; on dopamine D-2 receptor, 12000 nM.
As for `Oc1ccc2c(c1O)CC1(CCCCCC1)C1=C2CNCC1` [Example 199, Spiro[cycloheptane-1,5'-(1',2',3',4',5',6'-hexahydrobenzo[h]isoquinoline)]-7',8'-diol Hydrobromide], in the assay on dopamine D-1 receptor [2] (Hydrobromide), the “Intrinsic Activity” value is recorded as 83 and the concentration giving a half-maximal response (EC50) is 33 nM. The compound also had a Ki on dopamine D-1 receptor [3] of 54 nM. The Ki at dopamine D-2 receptor is 1400 nM. In assay [4], the “ED50 s.c. (rotation behavior)” value came out at 1.5 µmol/kg and the “ED50 oral (rotation behavior)” value was determined as 31 µmol/kg.
As to `Oc1ccc2c(c1O)CC1(CCCC1)C1=C2CNCC1` [Example 204], in the assay on dopamine D-1 receptor [2], the “Intrinsic Activity” value is 110 and the EC50 was found to be 48 nM. For the same compound, affinity on dopamine D-1 receptor [3] was put at a Ki of 160 nM. Moreover, the Ki at dopamine D-2 receptor worked out at 1500 nM. Further, in assay [4], the “ED50 s.c. (rotation behavior)” value was determined as 1.1 µmol/kg and the “ED50 oral (rotation behavior)” value is given as 18 µmol/kg.
On to `Oc1ccc2c(c1O)CC1(CCCCC1)C1=C2CNCC1` [Example 205], for which, in the assay on dopamine D-1 receptor [2], the “Intrinsic Activity” value stood at 100 and the EC50 was determined as 68 nM. Also, affinity at dopamine D-1 receptor [3] was put at a Ki of 210 nM. In addition, at dopamine D-2 receptor, the inhibition constant (Ki) worked out at 1500 nM. Further, in assay [4], the “ED50 s.c. (rotation behavior)” value is 3.4 µmol/kg.
In the case of `Br.CN1CCC2=C(C1)c1ccc(O)c(O)c1CC2c1ccccc1` (stereo not drawn) [Example 210, 2-Methyl-5-phenyl-1,2,3,4,5,6-hexahydrobenzo[h]isoquinoline-7,8-diol Hydrobromide], the “Intrinsic Activity” value in the assay with dopamine D-1 receptor [2] came to 98. Moreover, on dopamine D-1 receptor [2] (Hydrobromide), the EC50 worked out at 52 nM. Also, the inhibition constant (Ki) is 47 nM on dopamine D-1 receptor [3] and 1300 nM on dopamine D-2 receptor. For the same compound, the “ED50 s.c. (rotation behavior)” value in assay [4] came out at 0.005 µmol/kg. The “ED50 oral (rotation behavior)” value in assay [4] worked out at 1.6 µmol/kg.
Consider `CC(C)(C)CC1Cc2c(ccc(O)c2O)C(CN)O1.Cl` (stereo not drawn) [Example 214, 1-Aminomethyl-3-(2,2-dimethylpropyl)-3,4-dihydro-5,6-dihydroxy-1H-2-benzopyran Hydrochloride], for which the “Intrinsic Activity” value with dopamine D-1 receptor [2] came out at 106. Besides, on dopamine D-1 receptor [2], the EC50 stood at 20 nM. The inhibition constant (Ki) on dopamine D-1 receptor [3] worked out at 20 nM; at dopamine D-2 receptor, 5200 nM. The “ED50 s.c. (rotation behavior)” value in assay [4] came out at 0.085 µmol/kg.
For `NCC1OC(CC2CCCC2)Cc2c1ccc(O)c2O` (stereo not drawn) [Example 215], in the assay with dopamine D-1 receptor [2], the “Intrinsic Activity” value is recorded as 114 and the concentration giving a half-maximal response (EC50) worked out at 20 nM. Also, the affinity on dopamine D-1 receptor [3], expressed as Ki, was 20 nM. Moreover, the inhibitory constant (Ki) on dopamine D-2 receptor stood at 800 nM. The “ED50 s.c. (rotation behavior)” value in assay [4] was 0.55 µmol/kg.
Turning to `CC(C)CC1Cc2c(ccc(O)c2O)C(CN)O1` (stereo not drawn) [Example 216], the “Intrinsic Activity” value in the assay with dopamine D-1 receptor [2] turned out to be 114. For the same compound, the concentration for a half-maximal effect (EC50) on dopamine D-1 receptor [2] came out at 5 nM. Moreover, the Ki was determined as 3 nM on dopamine D-1 receptor [3] and 3700 nM on dopamine D-2 receptor. In addition, the “ED50 s.c. (rotation behavior)” value in assay [4] is given as 0.07 µmol/kg.
For the compound `CNCC1OC(CC(C)(C)C)Cc2c1ccc(O)c2O` (stereo not drawn) [Example 217], in the assay on dopamine D-1 receptor [2], the “Intrinsic Activity” value turned out to be 108 and the EC50 worked out at 20 nM. For the same compound, the inhibitory constant (Ki) on dopamine D-1 receptor [3] came to 30 nM. Also, at dopamine D-2 receptor, the Ki worked out at 1000 nM. For the same compound, the “ED50 s.c. (rotation behavior)” value in assay [4] came to 0.12 µmol/kg.
In the case of `CNCC1OC(CC2CCCC2)Cc2c1ccc(O)c2O` (stereo not drawn) [Example 218], in the assay with dopamine D-1 receptor [2], the “Intrinsic Activity” value worked out at 115 and the EC50 was 10 nM. Moreover, the Ki at dopamine D-1 receptor [3] turned out to be 20 nM. Further, the Ki on dopamine D-2 receptor was determined as 410 nM. The “ED50 s.c. (rotation behavior)” value in assay [4] stood at 0.93 µmol/kg.
`CN(C)CC1OC(CC(C)(C)C)Cc2c1ccc(O)c2O` (stereo not drawn) [Example 220]: in the assay with dopamine D-1 receptor [2], the “Intrinsic Activity” value stood at 72 and the EC50 was 400 nM. At dopamine D-1 receptor [3], this compound gave a Ki of 410 nM. Moreover, at dopamine D-2 receptor, the Ki amounted to 3100 nM. The “ED50 s.c. (rotation behavior)” value in assay [4] was 0.52 µmol/kg.
Take `NCC1OC2(CCCCCCCC2)Cc2c1ccc(O)c2O` (stereo not drawn) [Example 221]: in the assay on dopamine D-1 receptor [2], the “Intrinsic Activity” value is 84 and the EC50 stood at 80 nM. Besides, on dopamine D-1 receptor [3], affinity was put at a Ki of 90 nM. For the same compound, the inhibitory constant (Ki) on dopamine D-2 receptor was above 10000 nM. Moreover, the “ED50 s.c. (rotation behavior)” value in assay [4] is given as above 3 µmol/kg.
Take `NCC1=CC(C23CC4CC(CC(C4)C2)C3)Cc2c1ccc(O)c2O` (stereo not drawn) [Example 231]: the “Intrinsic Activity” value in the assay with dopamine D-1 receptor [2] is reported as 85. The concentration giving a half-maximal response (EC50) on dopamine D-1 receptor [2] is 90 nM. Also, the Ki at dopamine D-1 receptor [3] was 300 nM; on dopamine D-2 receptor it was above 10000 nM. In assay [4], the “ED50 s.c. (rotation behavior)” value is listed as above 3 µmol/kg.
With `Oc1ccc2c(c1O)CC1(CCCCCCCCC1)C1=C2CNCC1` [Example 240], the “Intrinsic Activity” value in the assay with dopamine D-1 receptor [2] was 70. At dopamine D-1 receptor [2], the EC50 came out at 130 nM. Also, the results for the Ki on dopamine D-1 receptor [3] and on dopamine D-2 receptor were 750 nM and 5200 nM, respectively. Besides, in assay [4], the “ED50 s.c. (rotation behavior)” value is recorded as above 3 µmol/kg.
As for `Oc1ccc2c(c1O)CC1(CCCCCCCC1)C1=C2CNCC1` [Example 241], in the assay on dopamine D-1 receptor [2], the “Intrinsic Activity” value is listed as 48 and the 50% effective concentration (EC50) was found to be 400 nM. Also, the inhibitory constant (Ki) on dopamine D-1 receptor [3] was 400 nM. Moreover, the Ki on dopamine D-2 receptor was 2900 nM. Further, the “ED50 s.c. (rotation behavior)” value in assay [4] is listed as above 3 µmol/kg.
Consider `CN1CCC2=C(C1)c1ccc(O)c(O)c1CC21CCCCCC1` [Example 249], for which, in the assay on dopamine D-1 receptor [2], the “Intrinsic Activity” value is reported as 32 and the 50% effective concentration (EC50) came out at 200 nM. The compound further returned a Ki at dopamine D-1 receptor [3] of 50 nM. For the same compound, the Ki on dopamine D-2 receptor was determined as 600 nM. For the same compound, the “ED50 s.c. (rotation behavior)” value in assay [4] amounted to 0.12 µmol/kg.

Source of the values: US5621133A (priority 1995, dated 1997).
